The subject of experiment [1] is D-Apt49. Briefly: Redox-mediated catalytic cyclic voltammetry titration with aptamer. The class given is binding. To be noted: specificity / enantioselectivity test, Figure 2B. How it is done:
(§1) All experiments were performed in 5 mM Tris buffer (pH 7) containing 10 mM MgCl2 and 50 mM NaCl (Recognition Buffer, RBr). The L-Tym concentration is always 5 µM. For cyclic voltammetric experiments, 1 µM [Os(bpy)3]2+ with 5 µM 1-Tym in a droplet of 50 µL RBr was used. So, before each experiment, the droplet is shaking with a micropipette. This procedure is repeated until we obtain a reproducible and stable voltammogram. Mother solution of Fc-1-Tym was a […] solution in DMF. This product is conserved at 4°C and seal with parafilm. Before each experiment, this solution is diluted 10 times in stabilized DMF, such as 0.2 µL in 50 µL of RBr leads to 5 µM of Fc-1-Tym.
(§2) Cyclic voltammetry measurements were performed with an AUTOLAB PGSTAT 12 potentiostat/galvanostat controlled by computer, and the data were acquired using GPES 4.9007 software (EcoChemie, The Netherlands). Small self-contained electrochemical cells made of 3 screen-printed electrodes on a flat substrate were used for all experiments. The electrodes were printed using a DEK model-65 screen-printer. Working electrodes were 4 mm diameter screen-printed carbon electrodes prepared using a commercial carbon ink (Electrodag PF-470 A) deposited on the top of an underlying Ag layer (Electrodag 418 SS). Counter electrode was obtained using an Ag ink (Electrodag 418 SS).
(§3) Before experiments, the screen-printed carbon electrodes were coated with bovine serum albumin (BSA) by immersing the electrodes in a 1 mg/mL BSA solution for 10 minutes at room temperature. The BSA-modified electrodes were next cycled between 0 V and 0.8 V at v = 0.05 V/s, until of the capacitive background current in cyclic voltammetry was stablized.
The 49-mer aptamer we have used (see here above) is a sequence similar to the one that was previously selected by Vianini et al and successfully applied to chromatographic- and fluorescence-based L-Tym assays. Since direct electrochemical oxidation of phenolic compounds generally leads to electrode passivation and thus to poorly reproducible anodic peak current in cyclic voltammetry (CV), the electrochemical detection of L-Tym was performed by redox-mediated catalytic oxidation of the phenolic function. For such a purpose, we have used the one-electron redox mediator couple [Os^III/II(bpy)3]^3+/2+ which, according to its relatively high standard potential (E^0=+0.58 V vs. Ag/AgCl), is capable to efficiently catalyze the oxidation of phenolic compounds. [drawing 51]
The linear dependence of the peak current with both the square root of scan rate, v, and L-Tym concentration, indicates conditions of total catalysis for which the catalytic peak current response, ip, can be expressed by eq 1. ip = 0.609nFSCT^0 sqrt(DT)sqrt(fv/RT) [formula] where n is the number of electron involved in the catalytic reaction, F the Faraday constant, S the electrode area, C^0T the bulk concentration of L-Tym, and DT the diffusion coefficient of L-Tym. After aptamer addition, the binding reaction (eq 2) is rapidly set at equilibrium. [drawing 53] with Kd the dissociation constant. On the basis of a classical law of action mass and mass balance (i.e., C^0T = CT + CRT, with CT and CRT the free and receptor-bound target concentrations), and assuming a 1:1 binding stoichiometry, the free (χƒ) mole fraction of target in the bulk solution can thus be estimated by eq 3. χf = (CT)/(CT^0) = 1-(Kd + CT^0 + CR^0 -sqrt(((Kd+CT^0+CR^0))^2 -4CT^0 CR^0))/(2CT^0) [formula]
Here, C^0R is the total concentration of the aptamer receptor added to the solution. Under the assumption of a slow interconversion of free and bound target on the time scale of CV experiments, the catalytic peak current can thus be expressed by a linear combination of the catalytic currents related to the free and bound target through eq 4. ip = 0.609nFSCT^0 sqrt(fv/RT)[χfsqrt(DT)+(1-χf)sqrt(DRT)] [formula] where DT and DRT are the diffusion coefficients of the free and receptor-bound target, respectively. […]

Experiment [2] concerns the target L-Apt49. Briefly: Redox-mediated catalytic cyclic voltammetry titration with mirror-image aptamer. The experiment is classed as binding. To be noted: nonlinear fit of eq 5; catalytic peak current, Tris buffer. The protocol:
as §1
Cyclic voltammetry measurements were performed with an AUTOLAB PGSTAT 12 potentiostat/galvanostat controlled by computer, and the data were acquired using GPES 4.9007 software (EcoChemie, The Netherlands). Small self-contained electrochemical cells made of 3 screen-printed electrodes on a flat substrate were used for all experiments. […]
From the combination of eqs 3 and 5 and knowledge of the catalytic peak currents determined both in the absence of aptamer (ip^0) [formula] and at extrapolated infinite aptamer concentration (ip^(∞)), [formula] we can write eq 5 which allows to predict the normalized peak current response decreases as a function of aptamer and target concentrations. […]

Experiment [3] has as its system D-Apt49. The experiment can be described thus: Homogeneous electrochemical competitive binding assay in Tris buffer. The protocol:
as §1, §2, §3
The competitive assay can be described by the two equilibrated binding reactions 6a and 6b, in which Fc-L-Tym is L-tyrosinamide labeled by a redox-active ferrocene group. The ferrocenyl label was here incorporated on the ―OH position of the phenolic group (Scheme 1). Note that under this condition the catalytic oxidation of the phenolic residue is no more possible and only the ferrocene labeled molecule can be detected. [drawing 63] [drawing 64] with Kd = (CTCR)/CRT [formula] Kd^(*) = (CT^(*)CR)/CRT^(*) [formula] where CR is the concentration of free aptamer receptor. […] Ideally, the two binding constants should be as close as possible (Kd ≈ K^*d). The value of K^*d was determined by monitoring in CV the reversible response of 5 µM Fc-L-Tym solution as a function of increasing concentrations of D-Apt49.
The competitive binding assay was achieved from two separate solutions containing a starting mixture of 5 µM Fc- L-Tym and 3 µM or 10 µM D-Apt49, and to which an increasing amount of L-Tym was added. […]

Experiment [4] has as its target D-Apt49. Briefly: Cyclic voltammetry titration of ferrocene-labeled target with aptamer. The class given is binding. To be noted: 5 µM Fc-L-Tym, increasing D-Apt49, Tris buffer pH 7.0; fit of eq 5; also used as predetermined value in competitive fits. How it is done:
as §1
Cyclic voltammetry measurements were performed with an AUTOLAB PGSTAT 12 potentiostat/galvanostat controlled by computer, and the data were acquired using GPES 4.9007 software (EcoChemie, The Netherlands). […]
The competitive assay can be described by the two equilibrated binding reactions 6a and 6b, in which Fc-L-Tym is L-tyrosinamide labeled by a redox-active ferrocene group. […] Note that under this condition the catalytic oxidation of the phenolic residue is no more possible and only the ferrocene labeled molecule can be detected. […] The value of K^*d was determined by monitoring in CV the reversible response of 5 µM Fc-L-Tym solution as a function of increasing concentrations of D-Apt49. […]

The test system of experiment [5] is L-Apt49. The experiment can be described thus: Cyclic voltammetry of ferrocene-labeled target with mirror-image aptamer. The experiment is classed as binding. Conditions: not shown.
The target of experiment [6] is D-Apt49. The experiment can be described thus: Homogeneous electrochemical competitive binding assay in 20% fetal bovine serum. The protocol: • Figure 1: Electrochemically competitive assay of the invention. Left-hand column: before the addition of the sample: a first redox signal is measured. Right-hand column: after the addition of a sample containing the target to be detected or measured: a second redox signal is measured. (A) Homogeneous electrochemically competitive assay: the presence of the target disrupts the complex formed between the oligonucleotide ligand and the redox-labeled target. […] (B) Heterologous electrochemically competitive assay, wherein the oligonucleotide ligand is attached to a solid phase: the presence of the target disrupts the complex formed between the oligonucleotide ligand and the redox-labeled target, thereby inducing a better detection of the redox labeled-target. […] (C) Heterologous electrochemically competitive assay, wherein the oligonucleotide ligand is attached to the electrode: the presence of the target disrupts the complex formed between the oligonucleotide ligand and the redox-labeled target, thereby reducing the detection of the redox labeled-target. […] (f) CV of 1 µM [Os(bpy)3]^2+ alone. […] Error bars: standard deviations from 3 measurements. Plain lines: fits of eq 5 to the experimental data. • Figure 3: (A) CVs (v = 0.05 V s^-1) of 5 mM Tris buffer (pH 7.0) containing 50 mM NaCl, 10 mM Mg^2+, 5 µM Fc-L-Tym and (a) 0 µM, (b) 1 µM, (c) 2 µM, (d) 3 µM, (e) 4 µM (f) 5 µM (g) 7.5 µM (h) 10 µM (i) 12.5 µM and (j) 15 µM of D-Apt49. (B) Normalized anodic peak current response as a function of aptamer concentration. Each data is the average of 3 measurements. Error bars are standard deviations. Plain line: fit of eq 5 to the experimental data. • Figure 4: Competitive binding curves performed in (A) 5 mM Tris buffer (pH 7 + 50 mM NaCl + 10 mM MgCl2) or (B) 20% fetal bovine serum (simply diluted with a 4 mM MgCl2 aqueous solution) as a function of (●, ★, ▼, Δ) L-Tym or (○) D-Tym concentration. (*) Assay of 5 µM L-Tym in the presence of 5 mM D-Tym. The Fc-L-Tym concentration was always C^0T*= 5 µM, whereas the D-Apt49 concentrations were C^0R: (●) 3, (★,○,*) 10, (▼) 40 and (Δ) 100 µM.
The enantiospecificity of the assay was next characterized using the same methodology but for solutions containing the D-Tym enantiomer. […] To evaluate the enantiospecific performance of the aptamer, the assay of trace amount of L-Tym in the presence of a large excess of D-Tym was examined and, as reported in Figure 4A, it has been found possible to detect as low as 5 µM L-Tym in the presence of 5 mM D-Tym. This remarkable performance means that as low as 0.1 % of an enantiomeric impurity in a nonracemic mixture can be assayed in a very short analysis time (<1 min). This is competitive with conventional separation techniques, and one order of magnitude lower than the 1% currently attainable by NMR. Finally, the ability to perform an assay under realistic biological conditions was examined. For such purpose, homogenous electrochemical competitive binding assays of 5-fold diluted fetal bovin serum samples spiked with known amounts of […] were then performed (Figure 4B).

`NC(=O)[C@H](N)Cc1ccc(O)cc1` [D-Tym, d-tyrosinamide]: in the experiment on D-Apt49 [1], the “catalytic current response upon the addition of D-Apta49” value is reported as “no significant catalytic current response decrease”. For the same compound, on L-Apt49 [2], the Kd was found to be 3.8 ± 0.7 µM. Moreover, the “displacement of Fc-L-Tym from D-Apt49” value in the experiment with D-Apt49 [3] (0-100 µM concentration range, 10 µM D-Apt49, Tris buffer) is listed as “no displacement”. Besides, in the experiment with D-Apt49 [3] (concentrations as high as few millimolar), the response change result was “without significant response change”.

For the compound `CC(=O)Nc1ccc(O)cc1` [paracetamol], the “catalytic current response upon the addition of D-Apta49” value with D-Apt49 [1] is “no significant catalytic current response decrease”.

As for `NC(=O)[C@@H](N)Cc1ccc(O[c-]2cccc2)cc1.[Fe+2].c1cc[cH-]c1` [Fc-L-Tym, O-Ferrocenyltyrosynamide], the Kd is 1.2 ± 0.4 µM on D-Apt49 [4]; 75 µM on D-Apt49 [6] (5-fold diluted fetal bovine serum, average of the fitted curves, read-out: K^*d (average value)); 75 µM on D-Apt49 [6] (20% fetal bovine serum, 5 µM Fc-L-Tym, 40 µM D-Apt49, read-out: K^*d); 75 µM on D-Apt49 [6] (20% fetal bovine serum, 5 µM Fc-L-Tym, 100 µM D-Apt49, read-out: K^*d). Besides, the “current change in the presence of L-Apt49” value in the experiment on L-Apt49 [5] is recorded as “absence of current change”.

Take `N[C@@H](Cc1ccc(O)cc1)C(=O)O` [L-tyrosine]: the “catalytic current response upon the addition of D-Apta49” value in the experiment on D-Apt49 [1] is given as “no significant catalytic current response decrease”.

The record behind these values is patent EP2657347A1, “Electrochemical competitive assay and use thereof” (Université Paris Diderot - Paris 7, priority 2012, dated 2013).
